Experiments:
[1] = test system: VEGF; test: VEGF production by human peripheral blood monocytes (ELISA, real-time PCR); format: cell-based; settings: monocytes with GM-CSF and compound vs GM-CSF alone; p=0.556; FIG. 11C
Protocol: Human peripheral blood mononuclear cells (PBMCs) were isolated from fresh peripheral blood leukocyte source packs (American Red Cross, Columbus Ohio) by density gradient centrifugation over Lymphocyte Separation Medium (Cellgro). Monocytes were purified from total PBMCs by layering over FBS. Monocytes were cultured in endotoxin-free RPMI-1640 supplemented with 1% fetal bovine serum (FBS), 0.1% human serum albumin (HSA), and 10 μg/mL of the endotoxin inhibitor polymyxin B. In some experiments, freshly isolated monocytes were differentiated into macrophages by three-day culture in media containing 10% FBS, 1% PSA (penicillin G sodium, streptomycin sulfate, and amphotericin B), and 20 ng/mL M-CSF. Macrophages were serum-starved for 2 hours prior to stimulation. Monocytes or monocyte-derived macrophages were treated for 24 hours with 10 ng/mL GM-CSF, 10 μM disclosed HIF-2α stabilizer, or an equivalent volume of the vehicle controls (PBS or DMSO, respectively). Cell-free culture supematants were harvested and analyzed for VEGF or sVEGFR-1 by ELISA (R&D Systems).
Human monocytes were left untreated or were stimulated with 100 ng/mL GM-CSF at normoxia or at 0.5% O2. At various time-points, cells were harvested in Trizol reagent (Invitrogen) and RNA was extracted in chloroform and then purified using the RNeasy Minikit (Qiagen). In murine studies, organs harvested at the time of euthanasia were flash-frozen in liquid nitrogen, pulverized in liquid nitrogen, and then dissolved in Trizol. cDNA was generated from 1 μg of RNA using the Superscript First Strand Synthesis System (Invitrogen) and used for real-time PCR using previously described primers and SYBR Green PCR Master Mix (Applied Biosciences), according to the manufacturer's instructions. Data were analyzed according to the comparative threshold method and normalized against the β-actin internal control transcript. Results are semi-quantitative and represent the fold difference in transcript levels in a particular sample as compared with levels in untreated cells from the same donor. […]

[2] = test system: phosphoglycerate kinase (PGK) mRNA; test: PGK mRNA expression (qPCR) in HIF-1α−/− fibroblasts; format: cell-based, murine; settings: hypoxic conditions (1% O2), 1, 10 and 100 μM, vs. hypoxia control, FIG. 2B
Protocol: Total RNA was isolated from tissues and cells by using TRIzol™ Reagent (Invitrogen) and the RNeasy kit (Qiagen), respectively. 1 μg RNA was used for reverse transcription using SuperScript II First-Strand Synthersis System (Invitrogen). cDNA's were amplified in a SYR Green or TaqMan Universal Master Mix (Applied Biosystems). Quantitative PCR (qPCR) was performed on ABI Prism 7700 sequence detection system. PCR conditions are: 10 min at 95° C., 40 cycles of 15 seconds at 95° C. and 1 minute at 60° C. The relative amount of mRNA was calculated after normalization to β-actin.
Cells were cultured in DMEM (#11965-092, Invitrogen) supplemented with 10% fetal bovine serum (Invitrogen), 100 U/mL penicillin and […] streptomycin. For glucose deprivation, DMEM without glucose (#11966-025, Invitrogen) was used.
Mouse embryonic fibroblasts (MEFs) were isolated from E12.5 embryos and immortalized by stable transfection with SV40 large T antigen.

[3] = test system: A375 human melanoma cells; test: A375 human melanoma tumors in SCID mice; format: in vivo; settings: at the time of sacrifice; stabilizer 17 mg/kg, docetaxel 1 mg/kg, IP 3 times per week
Protocol: 6-8-week-old C57BL/6 mice or SCID mice were injected with 1×10^5 B16F10 murine melanoma cells or 1×10^6 A375 human melanoma cells, respectively, subcutaneously on the left flank. […] Tumor diameters were measured 3 times per week with calipers, and tumor volumes will be calculated as follows: Tumor volume=0.5×[(large diameter)×(small diameter)^2].
In the study, immunocompromised SCID mice were inoculated with A375 human melanoma tumors subcutaneously. Starting when the tumors became palpable (7 days after injection), mice were treated with either the cytotoxic chemotherapy docetaxel or with the disclosed HIF-2α stabilizer. The disclosed HIF-2α stabilizer was given at a dose of 17 mg/kg, and the docetaxel was given at 1 mg/kg. Both drugs were given IP 3 times per week. […] At the time of sacrifice, the tumors in the mice that received only the disclosed HIF-2α stabilizer were approximately 78% of the size of the control tumors, the tumors of the mice that received only chemotherapy were approximately 50% of the size of the control tumors, and the tumors of the mice that received both drugs were approximately 16% of the size of the control tumors.

Compound: O=C(O)CNC(=O)c1ncc(-c2cccc(F)c2)cc1O [disclosed HIF-2α stabilizer, {[5-(3-Fluorophenyl)-3-hydroxypyridine-2-carbonyl]amino} acetic acid]
- VEGF transcript levels [1]: no difference
- PGK mRNA (relative amount) [2]: dramatic reduction
- tumor size as % of the size of the control tumors [3]: approximately 78%
